Results from publication PMC9221509, “Discovery of a Novel Antimicrobial Peptide, Temporin-PKE, from the Skin Secretion of Pelophylax kl. esculentus, and Evaluation of Its Structure-Activity Relationships” (Biomolecules, 2022).
pIC50: −log10 of the molar value. Values after ≈ are worked out from the molar mass of the structure shown. Non-standard residues stand in square brackets, D forms with d. Residues, ends and D or L forms follow the SMILES beside them. No end group written: not given here.

Columns and labels:
NCI-H838 (H838) cells = assay type: cell-based; details: 24 h
Procedure: (§1) The cytotoxicity of the peptides against the human epidermal keratinocyte line, HaCaT, was tested using the MTT cell viability assay as described in a previous study. The 100 µL of the cell suspension in a complete DMEM medium with a density of 10,000 cells/mL was seeded in a 96-well plate and incubated overnight at 37 °C in a humidified 5% CO2 atmosphere. After 4 h of starvation in a serum-free medium, 100 μL of serial dilutions (from 10^−9 M to 10^−4 M) of temporin-PKE and its analogues was added to each well, and the plate was incubated for 24 h. The serum-free medium and 0.1% Triton X-100 were used as the negative and positive control, respectively. Then, MTT solution, at a volume of 10 μL, was added to each well, and the plate was incubated for 2 h. After this, the medium was replaced by 100 μL of DMSO, and plates were put in the shaking incubator for 15 min. The absorbance of each well was measured using a microplate reader (EL808, Biolise BioTek, Winooski, VT, USA) set to a wavelength of 570 nm. The equation used to calculate the viability of the cells is shown below: Cell viability (%)=A−Ab/An−Ab×100% where A represents the absorbance of each treatment group, Ab represents the average absorbance of the wells in the blank control group (cells not exposed to the test peptide and MTT), and An represents the average absorbance of the wells in the negative control group (cells not exposed to the test peptide).
(§2) The anti-proliferative activities of peptides against HCT-116, NCI-H838 (H838), U251MG, PC-3, and NCI-H157 cell lines were determined by MTT cell viability assay, and the details were described in Section 2.9.

HCT-116 cells = assay type: cell-based; details: 24 h
Procedure: as §1, §2

PC-3 cells = assay type: cell-based; details: 24 h
Procedure: as §1, §2

NCI-H157 cells = assay type: cell-based; details: 24 h
Procedure: as §1, §2

U251MG cells = assay type: cell-based; details: 24 h
Procedure: as §1, §2

MRSA (NCTC 12493) = assay type: cell-based, methicillin-resistant Staphylococcus aureus; details: NCTC 12493, 24 h
Procedure: (§3) The antimicrobial activities of peptides were evaluated against the Gram-positive bacteria, S. aureus (ATCC 6538), methicillin-resistant Staphylococcus aureus (MRSA) (NCTC 12493), Enterococcus faecalis (E. faecalis) (NCTC 12697); the Gram-negative bacteria, E. coli (ATCC CRM 8739), Klebsiella pneumoniae (K. pneumoniae) (ATCC 43816), Pseudomonas aeruginosa (P. aeruginosa) (ATCC CRM 9027); and the yeast, Candida albicans (C. albicans) (ATCC CRM 10231). Clinical isolates of MRSA (B042 V2E1 A), E. coli (ATCC BAA-2340), K. pneumoniae (ATCC BAA-1705), and P. aeruginosa (B004 V2S2 B) were also used to determine their antimicrobial activities. The suspension of microorganisms in the logarithmic growth phase with a specific final density (Gram-negative and Gram-positive bacteria: 5 × 10^5 CFU/mL; yeast: 1 × 10^6 CFU/mL) was incubated with different peptide concentrations from 1 µM to 512 µM at 37 °C for 24 h. PBS was used as the negative control, and norfloxacin and amphotericin B were selected as the positive control for bacteria and yeast, respectively. Since the Norfloxacin had weak activities against P. aeruginosa (B004 V2S2 B) and K. pneumoniae (ATCC BAA 1705), gentamicin was used as the positive control for these two bacterial strains. The absorbance of each well was obtained using a microplate reader (EL808, Biolise BioTek, Winooski, VT, USA) set at 550 nm wavelength. The MIC value was the lowest concentration of a peptide that inhibits visible bacterial growth. Once the MIC values were determined, an aliquot from the bacterial culture exposed to the peptide at or above its MIC value was inoculated on a Mueller Hinton agar (MHA) and was incubated at 37 for 18 h. The MBC value was the lowest concentration of a peptide that kills 99.9% of bacteria.
According to the procedures in a previous article, the analysis of the sensitivity of the peptides was determined by measuring MIC values in the presence of different types of salts and 10% fetal bovine serum. MRSA (NCTC 12493) and K. pneumoniae (ATCC 43816) were selected as the subjects of these assays. Various salts at different concentrations, including 150 mM NaCl, 4.5 mM KCl, 6 μM NH4Cl, 1 mM MgCl2, […], […], and 10% serum (Gibco, Auckland, New Zealand), were added to the MHB medium for the examination of the MIC values which were determined as described in Section 2.7.

E. faecalis (NCTC 12697) = experiment: microbe, parasite or virus in culture; assay type: cell-based, Enterococcus faecalis; details: for MBC: NCTC 12697, 18 h; for MIC: NCTC 12697, 24 h
Procedure: as §3

| Compound | pIC50 (NCI-H838 (H838) cells) | pIC50 (HCT-116 cells) | pIC50 (PC-3 cells) | pIC50 (NCI-H157 cells) | pIC50 (U251MG cells) | MIC against MRSA in the presence of 4 µM FeCl3 (MRSA (NCTC 12493)) | MIC against MRSA in the presence of 6 µM NH4Cl (MRSA (NCTC 12493)) | MIC against MRSA in the presence of 8 µM ZnCl2 (MRSA (NCTC 12493)) | MIC against MRSA in the presence of 1 mM MgCl2 (MRSA (NCTC 12493)) | MIC against MRSA in the presence of 2 mM CaCl2 (MRSA (NCTC 12493)) | MIC against MRSA in the presence of 4.5 mM KCl (MRSA (NCTC 12493)) | MIC against MRSA in the presence of 150 mM NaCl (MRSA (NCTC 12493)) | MIC against MRSA in the presence of 10% FBS (MRSA (NCTC 12493)) | MIC against MRSA, Negative (MRSA (NCTC 12493)) | MBC (E. faecalis (NCTC 12697)) | MIC (E. faecalis (NCTC 12697)) |
| --- | --- | --- | --- | --- | --- | --- | --- | --- | --- | --- | --- | --- | --- | --- | --- | --- |
| FLPLIIGALSSKLPKIF-NH2 [Temporin-PKE-K12] | 4.64 | 4.66 | 4.56 | 4.62 | 4.59 | 8 µM | 8 µM | 32 µM | 16 µM | 16 µM | 32 µM | 32 µM | 32 µM | 4 µM | 8 µM | 8 µM |
| CC[C@@H](C)[C@@H](NC(=O)[C@H](CCCCN)NC(=O)[C@@H]1CCCN1C(=O)[C@H](CC(C)C)NC(=O)[C@H](CC(C)C)NC(=O)[C@H](CO)NC(=O)[C@H](CO)NC(=O)[C@H](CC(C)C)NC(=O)[C@H](C)NC(=O)CNC(=O)[C@H](NC(=O)[C@H](NC(=O)[C@H](CC(C)C)NC(=O)[C@@H]1CCCN1C(=O)[C@H](CC(C)C)NC(=O)[C@@H](N)Cc1ccccc1)[C@H](C)CC)[C@H](C)CC)C(=O)N[C@@H](Cc1ccccc1)C(N)=O [Temporin-PKE-3i] (H-FLPL[dI][dI]GALSSLLPK[dI]F-NH2) | 3.71 | 4.14 | 3.78 | 4.15 | 3.92 | 128 µM | 256 µM | 512 µM | 256 µM | 256 µM | 512 µM | 512 µM | 512 µM | 64 µM (≈ 118 µg/mL) | 128 µM (≈ 236 µg/mL) | 128 µM (≈ 236 µg/mL) |
| FLPKIIGKLSSLLPKIF-NH2 [Temporin-PKE-3K] | 6.29 | 6.42 | 5.52 | 5.48 | 5.55 | 2 µM | 4 µM | 16 µM | 4 µM | 4 µM | 4 µM | 8 µM | 4 µM | 2 µM | 2 µM | 2 µM |
| FLPLIIGKLSSLLPKIF-NH2 [Temporin-PKE-2K] | 5.51 | 5.55 | 5.58 | 5.56 | 5.60 | 2 µM | 4 µM | 16 µM | 4 µM | 4 µM | 4 µM | 8 µM | 8 µM | 2 µM | 2 µM | 2 µM |
| CC[C@@H](C)[C@@H](NC(=O)[C@H](CCCCN)NC(=O)[C@@H]1CCCN1C(=O)[C@H](CC(C)C)NC(=O)[C@H](CC(C)C)NC(=O)[C@H](CO)NC(=O)[C@H](CO)NC(=O)[C@H](CC(C)C)NC(=O)[C@H](C)NC(=O)CNC(=O)[C@@H](NC(=O)[C@@H](NC(=O)[C@H](CC(C)C)NC(=O)[C@@H]1CCCN1C(=O)[C@H](CC(C)C)NC(=O)[C@@H](N)Cc1ccccc1)[C@@H](C)CC)[C@@H](C)CC)C(=O)N[C@@H](Cc1ccccc1)C(N)=O [Temporin-PKE-i] (H-FLPLIIGALSSLLPK[dI]F-NH2) | 5.28 | 5.51 | 5.47 | 5.53 | 5.35 | 2 µM |  | 16 µM |  | 4 µM |  | 4 µM | 8 µM |  | 4 µM (≈ 7.37 µg/mL) | 4 µM (≈ 7.37 µg/mL) |
| FLPLIIGALSSLLPKIF-NH2 [Temporin-PKE] | 4.79 | 4.67 | 5.14 | 4.76 | 4.63 | 8 µM | 8 µM | 32 µM | 8 µM | 8 µM | 8 µM | 8 µM | 16 µM | 2 µM | 8 µM | 8 µM |
| FLPKIIGKLSSKLPKIF-NH2 [Temporin-PKE-4K] | 4.45 | 4.00 | 4.31 | 4.56 | 4.07 | 32 µM | 32 µM | 128 µM | 32 µM | 64 µM | 32 µM | 128 µM | 128 µM | 32 µM | 32 µM | 32 µM |
